We go through five molecules from patent US20160074428A1, “COMPOSITIONS AND METHODS FOR THE TREATMENT OF HUMAN IMMUNODEFICIENCY VIRUS INFECTION” (THE CHILDREN'S HOSPITAL OF PHILADELPHIA, priority 2013, published 2016).

Assay [1] concerns lymphocytes. The experiment in a line: Intracellular calcium measurement by flow cytometry in lymphocytes. The following applies: SP at concentrations as high as 30 μM; data not shown. The class given is cell-based, human. As to the method: (§1) Intracellular calcium measurements. Freshly isolated monocytes were washed in Hank's balanced salt solution (HBSS) containing 1 mM calcium chloride then loaded with Fluo-4 AM (2 μM) and Fura-red AM (2 μM). Intracellular calcium recordings were performed using the Accuri C6 Analyzer (BD Biosciences, San Jose, Calif.). Fluorescence intensities were recorded in FL1-A (Fluo-4 AM) and FL3-A (Fura-red AM) channels. Intracellular calcium measurements were quantified by calculating the ratio between FL1-A/FL3-A values as a derived parameter in FlowJo 7.6.5 for Windows (Treestar Inc., Ashland, Oreg.) as previously described (1).
SP induces intracellular calcium increase in human monocytes. Our previous studies have shown that in U373MG cell NK1R stimulates the release of Ca^2+ from intracellular stores though activation of phospholipase C. To assess whether the effect of SP on monocytes is due to activation of NK1R we examined the levels of intracellular Ca^2+. We used a ratiometric calcium assay, where PBMC were loaded with Fluo-4 and Fura-red, then stimulated again with SP or appropriate agonist. Gating on lymphocyte and monocyte populations was performed based of light scattering properties of the cells (FIG. 1A). […] This pharmacology profile of NK1R, with high concentrations of SP required to elicit a response is consistent with the truncated form of NK1R.
(A change in cytosolic calcium serves as a functional read-out for many receptors and channels.)

The subject of assay [2] is CD163. Nature of the assay: CD163 measurement by flow cytometry on monocytes/macrophages. The format is cell-based, human. The following applies: for CD163 expression, time course: 10 μM SP. As to the method: CD163 measurement by flow cytometry. For time-course experiments, freshly isolated monocytes were stimulated with either IL-10 (20 ng/ml) or SP (10 μM) and after 0, 2, 4 and 6 days of culture the cells were detached and the expression of membrane-bound CD163 was quantified by flow cytometry. For the dose-response experiments, freshly isolated monocytes were stimulated with either IL-10 (0.2, 0.6, 2, 6 or 20 ng/ml) or SP (0.3, 1, 3, 10 or 30 μM) and after 4 days of culture the cells were detached for CD163 measurement. Macrophages were detached using Lidocaine (4 mg/ml) in HBSS with EDTA (1 mM) for 30 minutes at 37° C. Cells were labeled with anti-human CD163 antibody (clone R-20) conjugated with PE (Trillium Diagnostics, Scarborough, Me.) for 30 minutes at room temperature. After labeling, cells were washed and resuspended in Hank's balanced salt solution (HBSS). Flow cytometry experiments were performed on an Accuri C6 analyzer (BD Biosciences, San Jose, Calif.) in the Flow Cytometry Core Laboratory of the Children's Hospital of Philadelphia Research Institute.
A general note: Flow cytometry measures light scatter and fluorescence of single cells or particles in a stream.

Assay [3] concerns HIV. The following applies: cited from earlier work.
In assay [4] the test system is HIV-Bal. Nature of the assay: HIV-Bal infection of macrophages, HIV gag mRNA by real time RT-PCR. The format is cell-based, HIV-1. The following applies: 0, 2, 10 or 20 μg/ml HbHp complex, 7 days postinfection. As for the experimental part: HIV infection. Macrophages were incubated with HIV-Bal virus overnight, and then extensively washed to remove unbound virus. The culture medium and the reagents were replaced twice weekly. At days 5, 7, 9 and 11 post HIV infection, cellular RNA was extracted from the MDM for assessment of HIV gag mRNA expression using real time RT-PCR assays.
RNA Extraction and Real-Time RT PCR Assays. Total RNA was extracted from macrophages using RNeasy kit (Qiagen), and the potential DNA contamination was eliminated by on-column DNase digestion as instructed by the manufacturer (Qiagen). RNA concentration was determined by Qubit fluorometer using Quant-iT RNA Assay kit (Invitrogen, Eugene, Oreg.).
Total RNA (1 μg) was reverse transcribed using AffinityScript QPCR cDNA Synthesis kit ([…], Cedar Creek, Tex.) with random primer as instructed by the manufacture. Reverse transcriptase negative controls were used in order to control for genomic DNA contamination. 1 μl of the resulting cDNA was used as a template for real-time PCR amplification.
RNA Interference (RNAi). RNAi CD163 pool and control RNAi was purchased from Santa Cruz Biotechnologies. The siRNAs pool was transfected into macrophages with Lipofectamine RNAimax (Invitrogen), following the manufacturer's protocol. Experiments were carried out 48 h after transfection.

Assay [5] concerns HIV-GFP-tagged reporter virus pSF162R3 Nef+. Nature of the assay: Infection of macrophages with HIV-GFP-tagged reporter virus, GFP fluorescence. The class given is cell-based. The following applies: 0, 2, 10 or 50 μg/ml HbHp complex, 7 days postinfection. As for the experimental part: FIG. 5. Effect of HbHp-complexes on HIV infection in macrophages. Hb and Hp were added to macrophages in a 1:1 molar ratio and incubated for 2 h at 37° C. a) Macrophages, treated with 0, 2, 10 or 20 μg/ml of HbHp complex and infected with HIV-BaL, were assayed 7 days postinfection for HIV GAG by real time RT PCR. b) Macrophages, treated with 0, 2, 10 or 50 μg/ml of HbHp complex and infected with HIV-GFP-tagged reported virus, were assayed 7 days postinfection for GFP fluorescence. c) Representative images of macrophages, treated with 0, 2, 10, and 50 μg/ml of HbHp complex and infected with HIV-GFP-tagged reported virus 7 days postinfection. Average results of three independent experiments are presented as mean±SD.
Virus. The M-tropic HIV-1 R5 strain Bal was obtained from the NIH AIDS Reagent Program. The HIV-GFP-tagged reporter virus pSF162R3 Nef+, was made based on HIV-SF162 strain and was a gift from Dr. Amanda Brown (John Hopkins School of Medicine, Baltimore, Md.) (45).
Microscopy. Macrophages were infected with HIV-GFP-tagged reported virus pSF162R3 Nef+. […] GFP intensity was quantified using ImageJ (National Institute of Mental Health, Bethesda, Md., USA).

Assay [6] has as its target T1, NK1R (Homo sapiens, UniProt P25103).
T1 construct: endogenous in cells; host or cells: freshly isolated human blood monocytes (gated within PBMC)
The experiment in a line: Intracellular calcium measurement by flow cytometry (Fluo-4/Fura-red ratio) in monocytes. The format is cell-based. As for the experimental part:
as §1
Gating on lymphocyte and monocyte populations was performed based of light scattering properties of the cells (FIG. 1A).

No end group written: not given here.

T1 sequence (P25103 1-311): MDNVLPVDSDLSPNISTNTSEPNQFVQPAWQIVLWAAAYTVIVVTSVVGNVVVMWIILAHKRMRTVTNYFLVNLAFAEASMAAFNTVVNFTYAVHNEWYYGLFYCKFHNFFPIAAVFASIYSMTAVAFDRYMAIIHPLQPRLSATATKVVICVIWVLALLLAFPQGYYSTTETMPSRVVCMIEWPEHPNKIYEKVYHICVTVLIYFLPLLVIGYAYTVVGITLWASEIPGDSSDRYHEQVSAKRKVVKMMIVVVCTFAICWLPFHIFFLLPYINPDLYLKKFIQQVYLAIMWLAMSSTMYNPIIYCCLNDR

Consider “Substance P (RPKPQQFFGLM; ends and bridges not checked; UniProt P20366 58-68, looked up) [SP, undecapeptide neurotransmitter of the tachykinin family; purchased from Sigma]”, for which the “intracellular Ca2+ increase in lymphocytes” value in assay [1] is listed as “did not induce intracellular Ca^2+ increase”. Besides, the “extent of CD163 induction compared with IL-10” value in assay [2] is listed as “lower extent than that induced by IL-10”. Moreover, the “CD163 expression, time course” value in assay [2] (4 days) is recorded as “significant increase”; in assay [2] (6 days), “did not persist”. The “CD163 expression, dose response” value in assay [2] (SP 0.3-10 μM, 4 days) was “significant increase”. Moreover, in assay [2] (monocytes in AIM V medium without FBS, 4 days after treatment), the “levels of membrane bound CD163 with increasing doses” value was “progressively higher”. Besides, the “effect on HIV infection of MDM” value in assay [3] is given as “promotes HIV infection”.
Consider “Hb-Hp complexes: hemoglobin-haptoglobin complexes, Hb and Hp added in a 1:1 molar ratio; ligand of CD163”, for which the “HIV infection of macrophages (HIV GAG, RT PCR)” value in assay [4] was “concentration-dependent decrease”. The “number of infected cells/well (GFP fluorescence)” value in assay [5] is listed as “concentration-dependent decrease”.
As for `C[C@@H](O[C@H]1OCCN(Cc2n[nH]c(=O)[nH]2)[C@H]1c1ccc(F)cc1)c1cc(C(F)(F)F)cc(C(F)(F)F)c1` [Aprepitant, aprepitant], the “effect on SP induced calcium response” value in assay [6] (pre-treatment with 50 μM for 15 minutes before adding 10 μM SP) is reported as “abolished SP induced calcium response”.
Regarding Neurokinin B [NKB], the “Ca2+ response to agonist” value in assay [6] (10 μM agonist, SP induced a response in the same samples) is “failed to induce Ca^2+ responses”.

B1: interleukin-10 (protein, UniProt P22301 19-178, looked up)
Interleukin-10: SPGQGTQSENSCTHFPGNLPNMLRDLRDAFSRVKTFFQMKDQLDNLLLKESLLEDFKGYLGCQALSEMIQFYLEEVMPQAENQDPDIKAHVNSLGENLKTLRLRLRRCHRFLPCENKSKAVEQVKNAFNKLQEKGIYKAMSEFDIFINYIEAYMTMKIRN
notes: anti-inflammatory mediator that upregulates CD163 expression
For the molecule B1, the “CD163 expression, dose response” value in assay [2] (0.2 ng/ml IL-10, 4 days of culture) is reported as “significant increase”; in assay [2] (20 ng/ml IL-10, 4 days of culture) it was “had not induced maximal increase”. Also, the “expression of CD163, time course” value in assay [2] (20 ng/ml IL-10, 2 days) was “significant increase”; in assay [2] (20 ng/ml IL-10, days 4 and 6, compared with day 2) it was “higher”.
